According to ChEMBL document CHEMBL1154622, “Structure-guided design of potent and selective pyrimidylpyrrole inhibitors of extracellular signal-regulated kinase (ERK) using conformational control” (J Med Chem, 2009):
In brackets after ≈: the same amount, converted by molar mass.

Assays:
[1] = target: Vascular endothelial growth factor receptor 2 (Homo sapiens, UniProt P35968); assay: Inhibition of KDR
[2] = target: Protein kinase C beta type (Homo sapiens) (UniProt P05771); assay: Inhibition of PKCbeta1 at 1 uM
[3] = target: Fibroblast growth factor receptor 2 (Homo sapiens) (UniProt P21802); assay: Inhibition of FGFR2 at 1 uM
[4] = target: Casein kinase I isoform alpha (Homo sapiens) (UniProt P48729); assay: Inhibition of CK1 at 2 uM
Sequence of Casein kinase I isoform alpha (Homo sapiens) (P48729 2-337 limits assumed): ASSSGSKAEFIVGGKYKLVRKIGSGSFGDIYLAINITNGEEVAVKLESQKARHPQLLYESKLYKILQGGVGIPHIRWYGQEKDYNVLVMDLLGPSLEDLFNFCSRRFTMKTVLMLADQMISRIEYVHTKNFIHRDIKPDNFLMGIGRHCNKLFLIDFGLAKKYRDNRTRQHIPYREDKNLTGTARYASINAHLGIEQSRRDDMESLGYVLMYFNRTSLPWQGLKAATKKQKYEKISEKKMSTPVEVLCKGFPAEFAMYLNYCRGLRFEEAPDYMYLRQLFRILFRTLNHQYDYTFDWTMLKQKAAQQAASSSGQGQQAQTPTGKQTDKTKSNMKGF

[5] = target: Mitogen-activated protein kinase 13 (Homo sapiens) (UniProt O15264); assay: Inhibition of P38delta at 2 uM
[6] = target: cAMP-dependent protein kinase catalytic subunit PRKX (Homo sapiens) (UniProt P51817); assay: Inhibition of PRKX at 1 uM
Sequence of cAMP-dependent protein kinase catalytic subunit PRKX (Homo sapiens) (P51817 whole entry): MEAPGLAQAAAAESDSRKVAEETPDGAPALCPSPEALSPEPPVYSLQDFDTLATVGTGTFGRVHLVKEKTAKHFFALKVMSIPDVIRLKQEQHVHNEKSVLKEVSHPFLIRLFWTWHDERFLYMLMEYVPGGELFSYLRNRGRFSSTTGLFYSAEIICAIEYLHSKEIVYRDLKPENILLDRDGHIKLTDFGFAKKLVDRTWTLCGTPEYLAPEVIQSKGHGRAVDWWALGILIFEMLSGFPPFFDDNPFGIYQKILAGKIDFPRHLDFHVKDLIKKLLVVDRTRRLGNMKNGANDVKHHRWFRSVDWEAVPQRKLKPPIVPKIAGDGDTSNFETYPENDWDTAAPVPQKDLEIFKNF

[7] = target: Insulin-like growth factor 1 receptor (Homo sapiens) (UniProt P08069); assay: Inhibition of IGF1R at 1 uM
[8] = target: Tyrosine-protein kinase ZAP-70 (Homo sapiens, UniProt P43403); assay: Inhibition of ZAP70
Sequence of Tyrosine-protein kinase ZAP-70 (P43403 whole entry): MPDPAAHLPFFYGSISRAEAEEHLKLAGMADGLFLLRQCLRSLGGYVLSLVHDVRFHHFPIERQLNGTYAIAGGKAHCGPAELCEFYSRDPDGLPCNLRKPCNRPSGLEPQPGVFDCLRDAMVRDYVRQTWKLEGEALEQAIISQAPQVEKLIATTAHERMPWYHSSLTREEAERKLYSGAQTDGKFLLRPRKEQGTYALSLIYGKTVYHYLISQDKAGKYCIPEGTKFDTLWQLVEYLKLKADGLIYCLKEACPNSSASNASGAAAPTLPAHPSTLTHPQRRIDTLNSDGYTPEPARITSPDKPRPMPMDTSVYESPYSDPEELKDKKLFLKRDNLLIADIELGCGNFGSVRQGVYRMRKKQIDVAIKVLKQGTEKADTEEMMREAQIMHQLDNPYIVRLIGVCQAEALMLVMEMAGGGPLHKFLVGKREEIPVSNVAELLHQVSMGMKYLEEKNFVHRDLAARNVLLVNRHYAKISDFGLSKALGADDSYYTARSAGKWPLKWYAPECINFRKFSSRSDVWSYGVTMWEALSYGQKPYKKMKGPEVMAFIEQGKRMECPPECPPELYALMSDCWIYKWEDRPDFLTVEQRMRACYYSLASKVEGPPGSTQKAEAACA

[9] = target: Mitogen-activated protein kinase 11 (Homo sapiens) (UniProt Q15759); assay: Inhibition of P38beta at 2 uM
Sequence of Mitogen-activated protein kinase 11 (Homo sapiens) (Q15759 whole entry): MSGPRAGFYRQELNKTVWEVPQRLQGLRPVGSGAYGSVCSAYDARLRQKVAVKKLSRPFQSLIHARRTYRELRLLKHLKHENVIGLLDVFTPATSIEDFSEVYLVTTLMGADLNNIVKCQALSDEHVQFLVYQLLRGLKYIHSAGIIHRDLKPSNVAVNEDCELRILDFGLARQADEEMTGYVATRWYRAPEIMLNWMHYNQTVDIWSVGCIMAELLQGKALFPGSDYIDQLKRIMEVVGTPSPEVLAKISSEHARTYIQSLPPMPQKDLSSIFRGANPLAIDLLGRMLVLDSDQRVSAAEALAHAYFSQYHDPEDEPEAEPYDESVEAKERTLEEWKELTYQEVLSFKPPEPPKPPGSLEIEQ

[10] = target: Mitogen-activated protein kinase kinase kinase 14 (Homo sapiens, UniProt Q99558); assay: Inhibition of NIK
[11] = target: Serine/threonine-protein kinase Sgk2 (Homo sapiens) (UniProt Q9HBY8); assay: Inhibition of SGK2 at 1 uM
Sequence of Serine/threonine-protein kinase Sgk2 (Homo sapiens) (Q9HBY8 whole entry): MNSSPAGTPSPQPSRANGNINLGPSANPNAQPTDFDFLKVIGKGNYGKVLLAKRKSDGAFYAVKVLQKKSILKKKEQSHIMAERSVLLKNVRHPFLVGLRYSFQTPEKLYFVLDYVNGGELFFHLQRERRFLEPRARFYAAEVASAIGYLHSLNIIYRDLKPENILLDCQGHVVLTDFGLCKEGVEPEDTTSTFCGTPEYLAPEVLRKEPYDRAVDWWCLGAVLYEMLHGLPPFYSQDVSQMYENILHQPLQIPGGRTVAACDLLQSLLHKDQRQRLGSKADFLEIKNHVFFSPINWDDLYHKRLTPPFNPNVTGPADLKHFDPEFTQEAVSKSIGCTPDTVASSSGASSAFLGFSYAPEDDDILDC

[12] = target: Ribosomal protein S6 kinase alpha-3 (Homo sapiens) (UniProt P51812); assay: Inhibition of RSK2 at 1 uM
[13] = Distribution coefficient, log D of the compound; assay type: physicochemical; settings: octanol/water
[14] = target: Dual specificity tyrosine-phosphorylation-regulated kinase 1A (Homo sapiens) (UniProt Q13627); assay: Inhibition of DYRK1A at 1 uM
[15] = target: Proto-oncogene tyrosine-protein kinase receptor Ret (Homo sapiens) (UniProt P07949); assay: Inhibition of RET at 1 uM
[16] = Half life in mouse at 5 mg/kg, iv; assay type: ADME, organism-based; parameters: dose 5 mg/kg, route intravenous; settings: in vivo
[17] = target: Testis-specific serine/threonine-protein kinase 2 (Homo sapiens) (UniProt Q96PF2); assay: Inhibition of TSSK2 at 1 uM
Sequence of Testis-specific serine/threonine-protein kinase 2 (Homo sapiens) (Q96PF2 whole entry): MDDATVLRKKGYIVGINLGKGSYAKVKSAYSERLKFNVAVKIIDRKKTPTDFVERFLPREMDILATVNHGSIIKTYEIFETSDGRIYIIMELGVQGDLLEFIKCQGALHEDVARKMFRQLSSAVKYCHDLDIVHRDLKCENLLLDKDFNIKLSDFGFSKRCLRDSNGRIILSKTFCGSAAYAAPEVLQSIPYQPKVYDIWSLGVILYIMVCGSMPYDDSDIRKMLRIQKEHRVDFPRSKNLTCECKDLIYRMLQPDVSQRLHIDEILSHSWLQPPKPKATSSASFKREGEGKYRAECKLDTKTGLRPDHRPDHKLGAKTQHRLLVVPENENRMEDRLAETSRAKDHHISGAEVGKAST

[18] = Solubility in pH 7.4 buffer; assay type: physicochemical
[19] = target: Serine/threonine-protein kinase D1 (Homo sapiens) (UniProt Q15139); assay: Inhibition of PRKD1 at 1 uM
[20] = target: Ephrin type-B receptor 2 (Homo sapiens) (UniProt P29323); assay: Inhibition of EPH-B2 at 1 uM
[21] = Inhibition of PKA
[22] = Half life in rat at 10 mg/kg, po; assay type: ADME, organism-based; parameters: dose 10 mg/kg, route oral; settings: in vivo
[23] = target: Mitogen-activated protein kinase 12 (Homo sapiens) (UniProt P53778); assay: Inhibition of P38gamma at 2 uM
Sequence of Mitogen-activated protein kinase 12 (Homo sapiens) (P53778 whole entry): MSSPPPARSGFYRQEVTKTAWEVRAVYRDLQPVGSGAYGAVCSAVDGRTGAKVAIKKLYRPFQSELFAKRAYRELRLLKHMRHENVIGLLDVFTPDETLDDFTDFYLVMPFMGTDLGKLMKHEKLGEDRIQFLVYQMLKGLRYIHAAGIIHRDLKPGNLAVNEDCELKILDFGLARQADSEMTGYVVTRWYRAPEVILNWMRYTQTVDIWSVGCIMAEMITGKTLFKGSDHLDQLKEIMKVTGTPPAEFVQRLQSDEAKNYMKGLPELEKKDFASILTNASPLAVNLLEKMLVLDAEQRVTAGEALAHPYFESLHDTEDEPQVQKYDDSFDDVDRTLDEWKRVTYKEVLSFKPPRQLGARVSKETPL

[24] = target: Macrophage colony-stimulating factor 1 receptor (Homo sapiens) (UniProt P07333); assay: Inhibition of FMS at 1 uM
[25] = target: Vascular endothelial growth factor receptor 3 (Homo sapiens) (UniProt P35916); assay: Inhibition of FLT-4 at 1 uM
[26] = target: Tyrosine-protein kinase Fyn (Homo sapiens) (UniProt P06241); assay: Inhibition of FYN at 2 uM
[27] = target: Citron Rho-interacting kinase (Homo sapiens, UniProt O14578); assay: Inhibition of CIT
[28] = target: Serine/threonine-protein kinase Nek2 (Homo sapiens) (UniProt P51955); assay: Inhibition of NEK2 at 1 uM
Sequence of Serine/threonine-protein kinase Nek2 (Homo sapiens) (P51955 whole entry): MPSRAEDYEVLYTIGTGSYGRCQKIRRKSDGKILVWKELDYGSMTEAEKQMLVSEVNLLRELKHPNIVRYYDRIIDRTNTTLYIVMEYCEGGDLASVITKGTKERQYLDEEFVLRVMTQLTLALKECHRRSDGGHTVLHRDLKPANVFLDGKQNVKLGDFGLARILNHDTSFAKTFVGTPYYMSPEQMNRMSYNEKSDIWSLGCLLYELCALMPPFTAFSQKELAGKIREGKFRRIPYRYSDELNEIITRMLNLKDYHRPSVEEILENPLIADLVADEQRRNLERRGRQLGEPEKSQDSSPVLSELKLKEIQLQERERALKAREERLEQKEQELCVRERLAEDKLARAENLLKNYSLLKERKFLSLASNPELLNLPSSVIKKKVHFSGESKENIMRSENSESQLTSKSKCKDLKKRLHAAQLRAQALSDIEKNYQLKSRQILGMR

[29] = target: Serine/threonine-protein kinase DCLK2 (Homo sapiens) (UniProt Q8N568); assay: Inhibition of DCAMKL2 at 1 uM
[30] = target: Calcium/calmodulin-dependent protein kinase type II subunit alpha (Homo sapiens) (UniProt Q9UQM7); assay: Inhibition of CAMK2 at 2 uM
[31] = target: Death-associated protein kinase 1 (Homo sapiens) (UniProt P53355); assay: Inhibition of DAPK1 at 1 uM
[32] = target: Serine/threonine-protein kinase Chk1 (Homo sapiens) (UniProt O14757); assay: Inhibition of CHK1 at 2 uM
Sequence of Serine/threonine-protein kinase Chk1 (Homo sapiens) (O14757 whole entry): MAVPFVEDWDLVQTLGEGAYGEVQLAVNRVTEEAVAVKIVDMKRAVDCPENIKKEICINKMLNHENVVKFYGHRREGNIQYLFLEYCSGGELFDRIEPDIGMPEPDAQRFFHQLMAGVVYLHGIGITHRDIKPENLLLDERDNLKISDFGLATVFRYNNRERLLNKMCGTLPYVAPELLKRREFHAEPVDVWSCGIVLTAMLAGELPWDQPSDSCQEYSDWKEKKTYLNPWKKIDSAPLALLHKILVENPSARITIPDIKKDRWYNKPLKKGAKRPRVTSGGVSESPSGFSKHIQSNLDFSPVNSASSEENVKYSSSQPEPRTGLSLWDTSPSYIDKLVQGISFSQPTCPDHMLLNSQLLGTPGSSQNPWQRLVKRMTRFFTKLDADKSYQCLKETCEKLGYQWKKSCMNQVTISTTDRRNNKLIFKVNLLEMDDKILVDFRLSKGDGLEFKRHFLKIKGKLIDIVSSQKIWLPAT

[33] = target: Fibroblast growth factor receptor 3 (Homo sapiens) (UniProt P22607); assay: Inhibition of FGFR3 at 1 uM
[34] = target: MAP kinase-activated protein kinase 2 (Homo sapiens) (UniProt P49137); assay: Inhibition of MAPKAPK-2 at 1 uM
Sequence of MAP kinase-activated protein kinase 2 (Homo sapiens) (P49137 whole entry, looked up): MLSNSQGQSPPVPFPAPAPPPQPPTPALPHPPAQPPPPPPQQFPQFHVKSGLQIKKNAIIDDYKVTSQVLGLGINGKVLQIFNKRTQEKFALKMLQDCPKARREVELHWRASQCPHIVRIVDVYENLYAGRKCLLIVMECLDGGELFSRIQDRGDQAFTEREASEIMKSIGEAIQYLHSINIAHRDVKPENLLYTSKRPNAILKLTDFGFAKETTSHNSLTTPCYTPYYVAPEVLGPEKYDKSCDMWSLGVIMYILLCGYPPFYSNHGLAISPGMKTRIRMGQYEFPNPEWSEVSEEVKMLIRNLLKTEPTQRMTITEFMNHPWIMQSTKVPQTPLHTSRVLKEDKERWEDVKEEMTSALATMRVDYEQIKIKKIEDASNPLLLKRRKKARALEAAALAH

[35] = Oral bioavailability in rat at 10 mg/kg; assay type: ADME, organism-based; settings: in vivo
[36] = target: Tyrosine-protein kinase Fer (Homo sapiens) (UniProt P16591); assay: Inhibition of FER at 1 uM
[37] = target: PAS domain-containing serine/threonine-protein kinase (Homo sapiens) (UniProt Q96RG2); assay: Inhibition of PASK at 1 uM
Aurora kinase A = target: T1, Aurora kinase A (Homo sapiens, UniProt O14965); assay: Inhibition of AURA
T1 sequence (O14965 whole entry): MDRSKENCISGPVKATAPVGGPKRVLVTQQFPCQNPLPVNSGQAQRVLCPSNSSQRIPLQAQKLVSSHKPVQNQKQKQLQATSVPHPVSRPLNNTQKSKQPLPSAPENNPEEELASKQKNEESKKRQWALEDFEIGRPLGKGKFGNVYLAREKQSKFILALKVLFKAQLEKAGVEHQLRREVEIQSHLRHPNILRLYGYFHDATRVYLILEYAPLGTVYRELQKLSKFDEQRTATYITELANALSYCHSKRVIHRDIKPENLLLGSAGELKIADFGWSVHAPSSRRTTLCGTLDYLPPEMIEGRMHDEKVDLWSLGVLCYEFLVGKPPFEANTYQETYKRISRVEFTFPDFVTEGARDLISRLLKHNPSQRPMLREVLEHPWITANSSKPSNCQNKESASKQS

[38] = Volume of distribution at steady state in mouse at 5 mg/kg, iv; assay type: ADME, organism-based; parameters: dose 5 mg/kg, route intravenous; settings: in vivo, read-out: Vdss
[39] = target: Tyrosine-protein kinase CSK (Homo sapiens) (UniProt P41240); assay: Inhibition of CSK at 1 uM
[40] = target: Serine/threonine-protein kinase BRSK2 (Homo sapiens) (UniProt Q8IWQ3); assay: Inhibition of BRSK2 at 1 uM
Sequence of Serine/threonine-protein kinase BRSK2 (Homo sapiens) (Q8IWQ3 whole entry): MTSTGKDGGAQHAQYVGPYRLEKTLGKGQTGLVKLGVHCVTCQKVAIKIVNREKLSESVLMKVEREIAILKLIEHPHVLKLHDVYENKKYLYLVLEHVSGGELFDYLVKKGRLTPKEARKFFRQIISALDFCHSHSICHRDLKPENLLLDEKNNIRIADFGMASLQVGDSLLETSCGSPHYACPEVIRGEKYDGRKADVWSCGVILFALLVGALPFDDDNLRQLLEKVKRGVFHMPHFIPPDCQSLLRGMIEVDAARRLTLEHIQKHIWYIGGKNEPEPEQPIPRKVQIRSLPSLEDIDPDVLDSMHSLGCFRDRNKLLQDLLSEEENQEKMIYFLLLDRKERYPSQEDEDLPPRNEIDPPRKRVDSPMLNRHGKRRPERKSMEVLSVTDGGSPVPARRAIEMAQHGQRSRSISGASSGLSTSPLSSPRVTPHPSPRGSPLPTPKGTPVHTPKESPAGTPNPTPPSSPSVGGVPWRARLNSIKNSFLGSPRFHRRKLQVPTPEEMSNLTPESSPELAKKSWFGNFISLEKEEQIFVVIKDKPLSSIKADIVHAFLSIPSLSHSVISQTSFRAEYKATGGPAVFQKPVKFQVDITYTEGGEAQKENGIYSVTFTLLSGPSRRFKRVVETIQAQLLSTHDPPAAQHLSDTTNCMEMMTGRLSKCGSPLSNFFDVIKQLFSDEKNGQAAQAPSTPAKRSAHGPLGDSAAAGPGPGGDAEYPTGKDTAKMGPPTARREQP

[41] = target: Insulin receptor-related protein (Homo sapiens) (UniProt P14616); assay: Inhibition of IRR at 1 uM
[42] = target: Ribosomal protein S6 kinase alpha-4 (Homo sapiens) (UniProt O75676); assay: Inhibition of MSK2 at 1 uM
[43] = target: MAP kinase-activated protein kinase 3 (Homo sapiens) (UniProt Q16644); assay: Inhibition of MAPKAPK3 at 1 uM
[44] = Inhibition of CK2 at 2 uM
[45] = target: Cyclin-dependent kinase 2 (Homo sapiens, UniProt P24941)
[46] = target: Insulin receptor (Homo sapiens) (UniProt P06213); assay: Inhibition of INSR at 1 uM

Cc1cnc(Nc2ccc(F)cc2Cl)nc1-c1c[nH]c(C(=O)N[C@H](CO)c2cccc(Cl)c2)c1 showed a Ki [1] greater than 4 µM, an inhibition [2] of 4% and an inhibition [3] of 12%. It also gave an inhibition [4] of 25%, an inhibition [5] of 54% and an inhibition [6] of 3%. For the same compound, the inhibition [7] was 2%, the Ki [8] was greater than 4 µM and the inhibition [9] was 25%. For the same compound, the Ki [10] was greater than 5 µM, the inhibition [11] was 41% and the inhibition [12] was 6%. The logD [13] was 4.3, the inhibition [14] was 3% and the inhibition [15] was 3%. For the same compound, the half-life [16] was 1.6 h, the inhibition [17] was 3% and the solubility [18] was 10 µM (≈ 5 µg/mL). It also gave an inhibition [19] of 43%, an inhibition [20] of 0% and a Ki [21] greater than 4 µM. The half-life [22] was 3 h, the inhibition [23] was 56% and the inhibition [24] was 6%. For the same compound, the inhibition [25] was 8%, the inhibition [26] was 11% and the Ki [27] was greater than 10 µM. It also gave an inhibition [28] of 3%, an inhibition [29] of 1% and an inhibition [30] of 1%. It also gave an inhibition [31] of 2%, an inhibition [32] of 40% and an inhibition [33] of 8%. For the same compound, the inhibition [34] was 0%, the bioavailability [35] was 65% and the inhibition [36] was 3%. For the same compound, the inhibition [37] was 19%, the Ki (Aurora kinase A) was 0.54 µM and the Vd [38] was 5.6 L/kg. It also gave an inhibition [39] of 3%, an inhibition [40] of 2% and an inhibition [41] of 0%. For the same compound, the inhibition [42] was 6%, the inhibition [43] was 5% and the inhibition [44] was 0%. It also gave a Ki [45] of 0.852 µM and an inhibition [46] of 4%.
